Consider four compounds from publication PMC4166032 (Bioconjugate Chemistry, 2014).

In one data set the test system is PXR. Particulars: cited from earlier work; for pIC50: read-out: reported IC50, BODIPY FL vinblastine (4) as fluorescent probe.
The target of data set [1] is T1, GST-hPXR-LBD (Homo sapiens, UniProt O75469).
T1 sequence (O75469 146-433 limits assumed): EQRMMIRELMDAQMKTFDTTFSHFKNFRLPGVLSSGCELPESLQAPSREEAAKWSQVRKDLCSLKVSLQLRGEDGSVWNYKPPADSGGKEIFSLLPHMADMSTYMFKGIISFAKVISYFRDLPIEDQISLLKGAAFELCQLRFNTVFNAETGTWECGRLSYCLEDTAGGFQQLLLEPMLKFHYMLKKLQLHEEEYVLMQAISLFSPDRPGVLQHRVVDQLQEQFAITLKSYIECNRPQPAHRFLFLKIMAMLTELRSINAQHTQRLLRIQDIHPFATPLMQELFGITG
In words: biochemical. Particulars: 30 min.

For data set [2], the target named is T1, GST-hPXR-LBD.
Data set [3] concerns the target T1, GST-hPXR-LBD. Put plainly: biochemical.

pIC50, pKi: −log10 of the molar value. Like-named read-outs stand apart in the source and are kept apart here.

Turning to `Clc1ccccc1C(c1ccccc1)(c1ccccc1)n1ccnc1` [clotrimazole (6), clotrimazole], the pIC50 in the data set on PXR was 5.71.

With `C[C@@H]1C(=O)O[C@H]2C[C@@]34[C@H]5C[C@@H](C(C)(C)C)[C@]36[C@@H](OC(=O)[C@@H]6O)O[C@@]4(C(=O)O5)[C@]21O` [ginkgolide A (8), ginkgolide A], the pIC50 against GST-hPXR-LBD [1] (IC50 with 50 nM 20, 50 nM BODIPY FL vindoline (20) probe) was 4.68; against GST-hPXR-LBD [1] (IC50 with 100 nM 20, 100 nM BODIPY FL vindoline (20) probe, laboratory assay buffer, 1.1% DMSO), 4.42; in the data set on PXR, 4.86.

In the case of `CCC12C=CCN3CC[C@@]4(c5ccc(OC)cc5N(C)[C@H]4[C@@](O)(C(=O)OC)[C@@H]1OC(C)=O)[C@@H]32` (some centres unmarked) [vindoline (14), vindoline], the “inhibitory activity at 100 μM” value at GST-hPXR-LBD [2] is listed as 93%. On GST-hPXR-LBD [3], the pIC50 was 4.89 and the pKi is 4.95.

With `CC[C@]1(O)C[C@@H]2CN(CCc3c([nH]c4ccccc34)[C@@](C(=O)OC)(c3cc4c(cc3OC)N(C)[C@H]3[C@@](O)(C(=O)OC)[C@H](OC(C)=O)[C@]5(CC)C=CCN6CC[C@]43[C@@H]65)C2)C1` [vinblastine (10), vinblastine], the PXR-specific binding affinity result in the data set with PXR is on record as “low PXR-specific binding affinity”.

Usually pIC50 stands for the negative decadic logarithm of the IC50, by convention in mol/L. A word on the pKi: it is the negative decadic logarithm of the Ki, by convention in mol/L.
